The results in this text go back to patent US20060141496A1, “Method of screening substance interacting with ABC protein” (priority 2003, published 2006).

Data set [1] addresses T1, human MRP2 (Homo sapiens, UniProt Q92887).
T1 construct: made in house; host or cells: Sf9 insect cells (baculovirus, pFASTBac1)
The data set can be described thus: [3H] ADP binding amount by vanadate method, human MRP2-expressing Sf9 membrane. As to conditions: substrate 0.1 mM; reaction time 5 minutes; 37° C.; FIG. 6. Type of data set: biochemical.

Data set [2] addresses T2, human P-glycoprotein (Pgp or MDR 1) expressing membrane (Homo sapiens, UniProt P08183).
T2 construct: purchased Daiichi Pure Chemicals Co. No. 453228; host or cells: Sf9 insect cell membrane
Description: [3H] ADP binding amount by vanadate method, suction cleaning on 96-well glass filter, P-glycoprotein-expressing membrane. The format is biochemical. As to conditions: substrate 0.05 mM; reaction time 5 minutes; 37° C.; background of control membrane subtracted; FIG. 4.

T2 sequence (P08183 whole entry): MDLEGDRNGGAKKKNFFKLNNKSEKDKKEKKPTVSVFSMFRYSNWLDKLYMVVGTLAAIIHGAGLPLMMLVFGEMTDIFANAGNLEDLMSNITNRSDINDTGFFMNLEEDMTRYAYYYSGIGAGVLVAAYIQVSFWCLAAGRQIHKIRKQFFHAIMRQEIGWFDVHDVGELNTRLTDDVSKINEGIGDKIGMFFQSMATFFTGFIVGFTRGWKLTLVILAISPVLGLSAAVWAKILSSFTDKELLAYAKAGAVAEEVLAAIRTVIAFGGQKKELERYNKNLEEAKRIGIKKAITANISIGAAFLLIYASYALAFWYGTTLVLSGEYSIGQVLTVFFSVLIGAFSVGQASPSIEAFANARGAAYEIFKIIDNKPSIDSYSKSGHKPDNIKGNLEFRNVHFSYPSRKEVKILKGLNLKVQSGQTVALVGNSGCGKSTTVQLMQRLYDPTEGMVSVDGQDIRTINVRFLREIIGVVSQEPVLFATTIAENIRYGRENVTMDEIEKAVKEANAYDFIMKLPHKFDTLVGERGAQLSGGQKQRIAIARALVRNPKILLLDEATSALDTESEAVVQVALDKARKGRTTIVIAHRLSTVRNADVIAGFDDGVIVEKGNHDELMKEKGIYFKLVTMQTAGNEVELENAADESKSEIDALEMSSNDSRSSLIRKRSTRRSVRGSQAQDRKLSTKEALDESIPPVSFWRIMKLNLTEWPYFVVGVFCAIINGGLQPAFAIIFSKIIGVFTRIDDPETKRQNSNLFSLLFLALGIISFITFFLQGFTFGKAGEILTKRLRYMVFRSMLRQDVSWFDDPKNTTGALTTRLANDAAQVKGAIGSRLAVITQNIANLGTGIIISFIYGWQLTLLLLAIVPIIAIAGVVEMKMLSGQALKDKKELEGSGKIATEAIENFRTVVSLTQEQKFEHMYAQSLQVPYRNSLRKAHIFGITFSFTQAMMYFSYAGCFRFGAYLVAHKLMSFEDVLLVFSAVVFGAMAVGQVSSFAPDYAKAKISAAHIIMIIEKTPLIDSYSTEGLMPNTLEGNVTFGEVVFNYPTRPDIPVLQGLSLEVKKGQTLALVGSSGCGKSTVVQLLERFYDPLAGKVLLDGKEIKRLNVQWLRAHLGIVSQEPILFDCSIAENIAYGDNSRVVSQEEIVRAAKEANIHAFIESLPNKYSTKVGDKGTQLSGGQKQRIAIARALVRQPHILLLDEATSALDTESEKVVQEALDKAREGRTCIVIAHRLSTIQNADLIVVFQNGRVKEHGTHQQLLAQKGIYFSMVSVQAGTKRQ
T1 sequence (Q92887 whole entry): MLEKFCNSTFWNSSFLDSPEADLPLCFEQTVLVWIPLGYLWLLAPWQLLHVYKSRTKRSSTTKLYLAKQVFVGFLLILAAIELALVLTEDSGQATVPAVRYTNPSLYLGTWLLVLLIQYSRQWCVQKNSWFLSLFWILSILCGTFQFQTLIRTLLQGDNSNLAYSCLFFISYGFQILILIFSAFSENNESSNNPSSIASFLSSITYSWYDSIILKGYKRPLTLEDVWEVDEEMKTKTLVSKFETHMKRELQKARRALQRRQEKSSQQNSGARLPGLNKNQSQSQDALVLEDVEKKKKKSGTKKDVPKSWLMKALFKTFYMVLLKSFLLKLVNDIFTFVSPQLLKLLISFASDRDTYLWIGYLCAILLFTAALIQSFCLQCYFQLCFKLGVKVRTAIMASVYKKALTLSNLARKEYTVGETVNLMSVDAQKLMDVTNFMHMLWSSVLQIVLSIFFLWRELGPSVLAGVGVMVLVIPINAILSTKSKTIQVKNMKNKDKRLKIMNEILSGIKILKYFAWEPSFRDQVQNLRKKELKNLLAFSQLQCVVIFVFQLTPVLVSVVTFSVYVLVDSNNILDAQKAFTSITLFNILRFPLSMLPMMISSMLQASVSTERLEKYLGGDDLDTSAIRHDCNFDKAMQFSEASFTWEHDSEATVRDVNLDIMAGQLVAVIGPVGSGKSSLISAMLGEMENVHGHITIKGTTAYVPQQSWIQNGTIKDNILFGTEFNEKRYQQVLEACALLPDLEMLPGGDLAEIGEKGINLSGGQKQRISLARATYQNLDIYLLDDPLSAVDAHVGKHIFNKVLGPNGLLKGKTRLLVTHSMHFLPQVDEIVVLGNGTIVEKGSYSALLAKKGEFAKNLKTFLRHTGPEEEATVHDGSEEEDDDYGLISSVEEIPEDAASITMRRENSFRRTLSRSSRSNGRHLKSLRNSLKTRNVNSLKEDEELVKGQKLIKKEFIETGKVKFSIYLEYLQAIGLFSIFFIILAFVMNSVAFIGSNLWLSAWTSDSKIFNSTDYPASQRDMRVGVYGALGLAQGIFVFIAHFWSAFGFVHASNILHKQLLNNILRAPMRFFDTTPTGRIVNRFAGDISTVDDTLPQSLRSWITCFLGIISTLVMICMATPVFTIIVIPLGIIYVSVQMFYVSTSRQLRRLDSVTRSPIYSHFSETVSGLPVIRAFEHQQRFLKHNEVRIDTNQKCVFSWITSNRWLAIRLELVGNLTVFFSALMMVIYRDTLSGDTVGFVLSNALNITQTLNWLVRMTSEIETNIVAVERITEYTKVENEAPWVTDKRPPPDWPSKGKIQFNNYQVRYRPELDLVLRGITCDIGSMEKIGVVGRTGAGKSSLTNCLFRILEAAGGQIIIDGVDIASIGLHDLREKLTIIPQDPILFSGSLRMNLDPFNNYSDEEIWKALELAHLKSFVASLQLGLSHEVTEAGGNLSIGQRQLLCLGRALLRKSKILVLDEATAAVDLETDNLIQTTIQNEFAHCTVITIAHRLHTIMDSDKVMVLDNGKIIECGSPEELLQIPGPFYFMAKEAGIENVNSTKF

As to `O=C1OC(c2ccc(O)c(S(=O)(=O)O)c2)(c2ccc(O)c(S(=O)(=O)O)c2)c2c(Br)c(Br)c(Br)c(Br)c21` [Bromosulfalein], in data set [1], the “[3H] ADP binding activity compared to MRP2-expressing membranes without substrate” value is “increase of significant [^3H] ADP binding activity”. For the same molecule, the “[3H] ADP binding activity compared to P-glycoprotein-expressing membrane without substrate” value in data set [2] is listed as “lowered significantly”.
In the case of `COc1cccc2c1C(=O)c1c(O)c3c(c(O)c1C2=O)C[C@@](O)(C(C)=O)C[C@@H]3O[C@H]1C[C@H](N)[C@H](O)[C@H](C)O1` [Daunorubicin], in data set [2], the “[3H] ADP binding activity compared to P-glycoprotein-expressing membrane without substrate” value is recorded as “significant increase”.
On to `COc1cccc2c1C(=O)c1c(O)c3c(c(O)c1C2=O)C[C@@](O)(C(=O)CO)C[C@@H]3O[C@H]1C[C@H](N)[C@H](O)[C@H](C)O1` [Doxorubicin], for which, in data set [2], the “[3H] ADP binding activity compared to P-glycoprotein-expressing membrane without substrate” value is listed as “significant increase”.
For the molecule `Nc1nc2ncc(CNc3ccc(C(=O)N[C@@H](CCC(=O)O)C(=O)O)cc3)nc2c(=O)[nH]1` [Folate], the “[3H] ADP binding activity compared to P-glycoprotein-expressing membrane without substrate” value in data set [2] is “significant increase”.
In the case of `CN(Cc1cnc2nc(N)nc(N)c2n1)c1ccc(C(=O)N[C@@H](CCC(=O)O)C(=O)O)cc1` [Methotrexate], in data set [2], the “[3H] ADP binding activity compared to P-glycoprotein-expressing membrane without substrate” value is reported as “significant increase”.
Take `CC[C@]1(O)C[C@@H]2CN(CCc3c([nH]c4ccccc34)[C@@](C(=O)OC)(c3cc4c(cc3OC)N(C)[C@H]3[C@@](O)(C(=O)OC)[C@H](OC(C)=O)[C@]5(CC)C=CCN6CC[C@]43[C@@H]65)C2)C1` [Vinbrastine]: in data set [2], the “[3H] ADP binding activity compared to P-glycoprotein-expressing membrane without substrate” value is on record as “significant increase”.
As for `CC[C@]1(O)C[C@H]2CN(CCc3c([nH]c4ccccc34)[C@@](C(=O)OC)(c3cc4c(cc3OC)N(C=O)[C@H]3[C@@](O)(C(=O)OC)[C@H](OC(C)=O)[C@]5(CC)C=CCN6CC[C@]43[C@@H]65)C2)C1` [Vincristine], the “[3H] ADP binding activity compared to P-glycoprotein-expressing membrane without substrate” value in data set [2] was “significant increase”.
Take “β-estradiol-17-(β-D-glucuronide) [β-estradiol-17 (β-D-glucuronide)]”: the “[3H] ADP binding activity compared to MRP2-expressing membranes without substrate” value in data set [1] was “increase of significant [^3H] ADP binding activity”.
